Test results: ChEMBL document CHEMBL5143520, “Discovery and optimization of new 6, 7-dihydroxy-1, 2, 3, 4-tetrahydroisoquinoline derivatives as potent influenza virus PAN inhibitors” (Eur J Med Chem, 2022)
Active and inactive are the calls of the source. The calls are words filed in the database; no cut-off is given here.

What was measured:
[1] = Cytotoxicity against MDCK cells assessed as reduction in cell viability incubated for 48 hrs by MTT assay; assay type: toxicity, cell-based, Canis lupus familiaris; settings: dog
[2] = test system: Influenza A virus; assay: Antiviral activity against Influenza A virus A/WSN/33(H1N1) infected in MDCK cells assessed as reduction in virus induced cytopathic effect measured 48 hrs post infection by MTT assay; assay type: functional, organism-based
[3] = Selectivity index, ratio of CC50 for cytotoxicity against MDCK cells to EC50 for antiviral activity against Influenza A virus A/WSN/33(H1N1) infected in MDCK cells; assay type: toxicity, cell-based; settings: dog, read-out: Ratio CC50/EC50
[4] = target: Polymerase acidic protein (Influenza A virus (A/Puerto Rico/8/1934(H1N1)), UniProt P03433); assay: Inhibition of Influenza A virus N-terminal domain of PA endonuclease using 6FAM-TGGCAATATCAGCTCCACA-MGBNFQ as fluorescent substrate by FRET analysis
[5] = test system: Influenza A virus; assay: Antiviral activity against Influenza A virus A/WSN/33(H1N1) infected in human A549 cells assessed as reduction in nucleoprotein mRNA expression at 5 to 20 uM measured 24 hrs post infection by qRT-PCR analysis; assay type: functional, organism-based; settings: dose 5-20 µM
[6] = test system: Influenza A virus; assay: Antiviral activity against Influenza A virus A/WSN/33(H1N1) infected in MDCK cells assessed as distribution of PAN protein expression in nucleus and cytoplasm measured 24 hrs post infection by DAPI staining based microscopic analysis; assay type: functional, organism-based
[7] = test system: Influenza A virus; assay: Antiviral activity against Influenza A virus A/WSN/33(H1N1) infected in human A549 cells assessed as reduction in nucleoprotein expression at 5 to 20 uM measured 24 hrs post infection by Western blot analysis; assay type: functional, organism-based; settings: dose 5-20 µM
[8] = test system: Influenza A virus; assay: Antiviral activity against Influenza A virus A/WSN/33(H1N1) infected in MDCK cells assessed as inhibition of virus replication and translation by measuring reduction in nucleoprotein […] expression at 20 uM measured after 2 to 8 hrs by Western blot based time-of-addition assay; assay type: functional, organism-based; settings: time 2-8 hrs
[9] = test system: Influenza A virus; assay: Antiviral activity against Influenza A virus A/WSN/33(H1N1) infected in MDCK cells assessed as reduction in nucleoprotein […] expression at 20 uM measured after 0 to 10 hrs by Western blot based time-of-addition assay; assay type: functional, organism-based; settings: time 0-10 hrs

Row | SMILES | CC50 at 48 h [1] [µM] | EC50 [2] [µM] | selectivity ratio [3] | also measured
1 | O=CN1[C@H](C(=O)NCc2cccs2)Cc2cc(O)c(O)cc2[C@@H]1Cc1ccc(O)c(O)c1 | > 100 | > 10 |  | 
2 | O=CN1[C@H](C(=O)NCc2ccco2)Cc2cc(O)c(O)cc2[C@@H]1Cc1ccc(O)c(O)c1 | > 100 | > 10 |  | 
3 | COc1ccc(NC(=O)[C@@H]2Cc3cc(O)c(O)cc3[C@H](Cc3ccc(O)c(O)c3)N2C=O)cc1 | 50.9 | 6.12 | 8.3 | 
4 | O=C(O[C@@H]1Cc2c(O)cc(O)cc2O[C@@H]1c1cc(O)c(O)c(O)c1)c1cc(O)c(O)c(O)c1 [EPIGALOCATECHIN GALLATE] |  |  |  | IC50 [4]: 5.86 µM
5 | CN1CCc2cc(O)c(O)cc2C1Cc1ccc(O)c(O)c1 (racemic) | > 100 | > 20 |  | IC50 [4]: 1.88 µM
6 | CCN(CC)C(=O)[C@@H]1Cc2cc(O)c(O)cc2[C@H](Cc2ccc(O)c(O)c2)N1C=O | > 100 | > 10 |  | 
7 | O=CN1[C@H](C(=O)Oc2ccccc2Cl)Cc2cc(O)c(O)cc2[C@@H]1Cc1ccc(O)c(O)c1 | > 100 | 4.5 | > 22.2 | Activity [5]: Active; Activity [6]: Active; Activity [7]: Active; Activity [8]: Active; Activity [9]: Active; IC50 [4]: 0.28 µM
8 | CCCC(=O)N1[C@H](C(=O)OC)Cc2cc(O)c(O)cc2[C@@H]1Cc1ccc(O)c(O)c1 | > 100 | > 10 |  | 
9 | O=CN1[C@H](C(=O)Oc2ccccc2)Cc2cc(O)c(O)cc2[C@@H]1Cc1ccc(O)c(O)c1 | 77.7 | 7.6 | 10.2 | IC50 [4]: 0.45 µM
10 | O=CN1[C@H](C(=O)Oc2ccccc2Br)Cc2cc(O)c(O)cc2[C@@H]1Cc1ccc(O)c(O)c1 | 57.1 | 3.21 | 17.8 | IC50 [4]: 0.26 µM
11 | O=CN1[C@H](C(=O)Nc2ccccc2)Cc2cc(O)c(O)cc2[C@@H]1Cc1ccc(O)c(O)c1 | > 100 | > 10 |  | 
12 | O=CN1[C@H](C(=O)Oc2ccc(Br)cc2)Cc2cc(O)c(O)cc2[C@@H]1Cc1ccc(O)c(O)c1 | 32.1 | 3.23 | 9.8 | 
13 | COC(=O)[C@@H]1Cc2cc(O)c(O)cc2[C@H](Cc2ccc(O)c(O)c2)N1C(=O)CCl | 34.5 | 6.49 | 5.3 | 
14 | O=CN1[C@H](C(=O)Oc2ccc(Cl)cc2Cl)Cc2cc(O)c(O)cc2[C@@H]1Cc1ccc(O)c(O)c1 | 21.4 | 3.76 | 5.7 | 
15 | COC(=O)[C@@H]1Cc2cc(O)c(O)cc2[C@H](Cc2ccc(O)c(O)c2)N1C=O | > 100 | 7.04 | > 14.2 | IC50 [4]: 0.68 µM
16 | O=CN1[C@H](C(=O)Oc2c(Cl)cccc2Cl)Cc2cc(O)c(O)cc2[C@@H]1Cc1ccc(O)c(O)c1 | 24.8 | 2.57 | 9.6 | 
17 | O=CN1[C@H](C(=O)Oc2cccc(F)c2)Cc2cc(O)c(O)cc2[C@@H]1Cc1ccc(O)c(O)c1 | 55.6 | 4.72 | 11.8 | 

Row | SMILES | CC50 at 48 h [1] [µM] | EC50 [2] [µM] | selectivity ratio [3] | also measured
18 | CCOC(=O)[C@@H]1Cc2cc(O)c(O)cc2[C@H](Cc2ccc(O)c(O)c2)N1C=O | > 100 | 6.88 | > 14.5 | 
19 | O=CN1[C@H](C(=O)Oc2ccc(Cl)cc2)Cc2cc(O)c(O)cc2[C@@H]1Cc1ccc(O)c(O)c1 | 57.6 | 3.86 | 15 | 
20 | COC(=O)[C@@H]1Cc2cc(O)c(O)cc2[C@H](Cc2ccc(O)c(O)c2)N1C(=O)CNC(C)=O |  | > 20 |  | 
21 | COc1ccc(CNC(=O)[C@@H]2Cc3cc(O)c(O)cc3[C@H](Cc3ccc(O)c(O)c3)N2C=O)cc1 | > 100 | > 10 |  | 
22 | O=CN1[C@H](C(=O)Nc2ccc(Cl)cc2)Cc2cc(O)c(O)cc2[C@@H]1Cc1ccc(O)c(O)c1 | > 100 | 7.89 | > 12.7 | 
23 | COC(=O)[C@@H]1Cc2cc(O)c(O)cc2[C@H](Cc2ccc(O)c(O)c2)N1C(C)=O | > 100 | 7.65 | > 13.1 | IC50 [4]: 0.53 µM
24 | CCCOC(=O)[C@@H]1Cc2cc(O)c(O)cc2[C@H](Cc2ccc(O)c(O)c2)N1C=O | 75.1 | 7.72 | 9.7 | 
25 | O=CN1[C@H](C(=O)Oc2cccc(Cl)c2)Cc2cc(O)c(O)cc2[C@@H]1Cc1ccc(O)c(O)c1 | 84.3 | 6.09 | 13.8 | 
26 | O=CN1[C@H](C(=O)Oc2ccccc2F)Cc2cc(O)c(O)cc2[C@@H]1Cc1ccc(O)c(O)c1 | 61.2 | 5.23 | 11.7 | IC50 [4]: 0.37 µM
27 | O=CN1[C@H](C(=O)NCc2ccccc2)Cc2cc(O)c(O)cc2[C@@H]1Cc1ccc(O)c(O)c1 | > 100 | > 10 |  | 
28 | COC(=O)[C@@H]1Cc2cc(O)c(O)cc2[C@H](Cc2ccc(O)c(O)c2)N1C(=O)C(F)(F)F | 76.4 | 6.76 | 11.3 | IC50 [4]: 0.5 µM
29 | CCC(CC)[C@H](NC(C)=O)[C@@H]1[C@H](O)[C@@H](C(=O)O)C[C@H]1NC(=N)N [PERAMIVIR ANHYDROUS] | > 100 |  | > 19 | 
30 | CCC(=O)N1[C@H](C(=O)OC)Cc2cc(O)c(O)cc2[C@@H]1Cc1ccc(O)c(O)c1 | > 100 | > 10 |  | 
31 | CN(Cc1ccccc1)C(=O)[C@@H]1Cc2cc(O)c(O)cc2[C@H](Cc2ccc(O)c(O)c2)N1C=O | 91.9 | 8.68 | 10.6 | 
32 | O=CN1[C@H](C(=O)O)Cc2cc(O)c(O)cc2[C@@H]1Cc1ccc(O)c(O)c1 | > 100 | > 20 |  | 
33 | CN(C)C(=O)[C@@H]1Cc2cc(O)c(O)cc2[C@H](Cc2ccc(O)c(O)c2)N1C=O | > 100 | > 10 |  | 
